Data: patent US11026957B2, “Method to treat lipid dysregulation by modulation of proprotein convertase subtilisin/kexin type 9 (PCSK9) protein activity with small molecule ligands” (SRX CARDIO, LLC, priority 2014, dated 2021)

Molecular target: recombinant human PCSK9 (Homo sapiens, UniProt Q8NBP7)
Assay: Direct binding measurement by backscatter interferometry
Settings: 6-point binding curve, ±8 nM, r^2 of 0.86
Protocol: Direct binding was measured using backscatter interferometry, which has been previously described in “Interferometric detection system and method” (EP 1210581), “Free solution measurement of molecular interactions by backscattering interferometry” (WO 2009039466), “Temperature-stable interferometer” (WO 2009076372), and “Improved event detection for back-scattering interferometry” (WO 2013158300); which are incorporated herein in their entirety by reference.

Chain of recombinant human PCSK9 (Q8NBP7 153-692): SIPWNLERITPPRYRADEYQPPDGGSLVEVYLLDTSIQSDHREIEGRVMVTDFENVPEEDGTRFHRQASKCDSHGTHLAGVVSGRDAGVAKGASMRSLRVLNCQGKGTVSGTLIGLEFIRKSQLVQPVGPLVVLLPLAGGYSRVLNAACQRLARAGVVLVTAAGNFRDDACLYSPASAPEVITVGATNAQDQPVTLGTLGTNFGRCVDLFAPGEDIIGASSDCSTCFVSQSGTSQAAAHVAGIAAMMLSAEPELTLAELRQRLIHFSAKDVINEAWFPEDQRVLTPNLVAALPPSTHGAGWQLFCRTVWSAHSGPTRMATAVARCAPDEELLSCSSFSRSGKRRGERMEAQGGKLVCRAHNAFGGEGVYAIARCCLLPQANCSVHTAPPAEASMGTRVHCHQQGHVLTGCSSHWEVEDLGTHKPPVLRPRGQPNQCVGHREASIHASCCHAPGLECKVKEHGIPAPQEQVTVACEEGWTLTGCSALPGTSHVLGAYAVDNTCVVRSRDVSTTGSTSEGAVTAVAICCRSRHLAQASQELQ

Structure (SMILES): C/C(=N\Nc1nnn[nH]1)C(=O)N1CCC(c2ccccc2)CC1 [SRX200, (E)-2-(2-(1H-tetrazol-5-yl)hydrazono)-1-(4-phenylpiperidin-1-yl)propan-1-one]
- Kd: 24 nM
